Test [1] deals with anti-β2-GPI antibodies. The experiment in a line: ELISA of the anti-β2-GPI antibodies by use of a ligand-coated plate (results in words). Type of test: binding. To be noted: result in words.
Test [2] has as its system WB-CAL-1. The experiment in a line: ELISA on solid-phase lipid (ligand)-coated plate: WB-CAL-1 binding in presence of β2-GPI. Also on record: species or system mouse.
Test [3] concerns APS-2. The experiment in a line: ELISA on solid-phase lipid-coated plate: binding of antibodies of APS patient serum APS-2. On the set-up: species or system human. The note with it: Experiment 1; Absorbance, mean ± SD, n = 3; solid-phase lipid, β2-GPI 15 μg/mL; serum with β2-GPI removed. As for the experimental part:
(§1) To eliminate endogenous β2-GPI in some experiments, serum samples were passed through a heparin-Sepharose column. The effluent was dialyzed against PBS and was used for ELISAs.
(§2) Synthesized oxLig-1 (50 μg/mL, 50 μL/well) was adsorbed by evaporation on a polystyrene plate (Immulon 1B; Dynex Technologies Inc.), and the plate was then blocked with 1% BSA. Serum samples (diluted 1:100 with PBS containing 0.3% BSA) were incubated in the wells with β2-GPI (15 μg/mL) or other proteins for one hour at room temperature. Antibody binding was detected with HRP-labeled anti-human IgG. Further steps were performed through a method as described in “anti-β2-GPI ELISA.”
(§3) CL (50 μg/mL, 50 μL/well) was adsorbed on a polystyrene plate (Immulon 1B), and further steps were performed through a method as described in “ELISA for antibodies against a protein-oxLig-1 complex.”

The target of test [4] is T1, β2-GPI and anti-β2-GPI antibodies (Cof-22, WB-CAL-1, EY2C9) (Homo sapiens, UniProt P02749).
T1 construct: β2-GPI was purified from normal human plasma as described in [35] with slight modification; from tissue; host or cells: β2-GPI from pooled normal human plasma
T1 sequence (P02749 20-345): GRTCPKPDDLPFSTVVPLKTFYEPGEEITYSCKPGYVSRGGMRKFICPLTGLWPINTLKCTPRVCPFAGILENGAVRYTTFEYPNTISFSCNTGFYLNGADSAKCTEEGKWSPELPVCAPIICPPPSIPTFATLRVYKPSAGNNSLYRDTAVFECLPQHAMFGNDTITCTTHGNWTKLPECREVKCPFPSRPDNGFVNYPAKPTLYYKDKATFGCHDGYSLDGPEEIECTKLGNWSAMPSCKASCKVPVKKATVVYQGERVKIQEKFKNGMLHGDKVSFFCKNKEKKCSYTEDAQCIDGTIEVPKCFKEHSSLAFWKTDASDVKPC
Put plainly: TLC ligand blot with β2-GPI and anti-β2-GPI antibodies. Type of test: binding. To be noted: result in words. From the text:
Extracted lipids were spotted on a Polygram silica gel plate (product of Machery-Nagel) and developed in chloroform/methanol/30% ammonia/water (120:80:10:5, v/v/v/v, hereinafter referred to as solvent A). The plate was stained with I2 vapor, or with a spray of molybdenum blue, of 2N sulfuric acid containing 2% orcin, or of glacial acetic acid/sulfuric acid (19:1, v/v) (Lieberman-Burchard reaction). Alternatively, the developed plate was subjected to ligand blot with β2-GPI and an anti-β2-GPI antibody. TLC plates were blocked with PBS containing 1% bovine serum albumin (BSA) and were subsequently incubated with β2-GPI, anti-β2-GPI antibodies (Cof-22, WB-CAL-1, or EY2C9), and HRP-labeled anti-mouse IgG antibodies or anti-human IgM antibodies for one hour. In each step, plates were extensively washed with PBS. The color was developed with H2O2 and 4-methoxy-1-naphtol (product of Aldrich). The ligand-enriched bands scraped from the TLC plate were subjected to another TLC in chloroform/methanol (8:1, v/v) (hereinafter referred to as solvent B). […]
A fraction rich in a ligand (originating from oxLDL) obtained by two-step TLC was analyzed by reversed phase HPLC on a Sephasil Peptide C-18 5-μm column (4.6 mm×250 mm; product of Amersham-Pharmacia Biotech). […]

In test [5] the target is T2, β2-GPI (Homo sapiens, UniProt P02749).
T2 construct: β2-GPI was purified from normal human plasma as described in [35] with slight modification; from tissue; host or cells: pooled normal human plasma from healthy subjects
T2 sequence (P02749 20-345): T1 sequence (P02749 20-345)
The experiment in a line: ELISA on solid-phase lipid (ligand)-coated plate: β2-GPI binding detected with Cof-22.

The test system of test [6] is APS-1. Put plainly: ELISA on solid-phase lipid-coated plate: binding of antibodies of APS patient serum APS-1. To be noted: Experiment 1; Absorbance, mean ± SD, n = 3; solid-phase lipid, β2-GPI 15 μg/mL; serum with β2-GPI removed. On the set-up: species or system human. The protocol: as §1, §2, §3
The test system of test [7] is EY2C9. Put plainly: ELISA on solid-phase lipid (ligand)-coated plate: EY2C9 binding in presence of β2-GPI. Also on record: species or system human.
The mark [8] stands for this setting: Experiment 1, Absorbance, mean ± SD, n = 3, solid-phase lipid, β2-GPI 15 μg/mL.
[9] abbreviates: absorbance at 490 nm, mean ± SD (n = 3), solid-phase ligand not methylated.

This note sets out measurements from patent US7160733B2, “Ligand specific to β2-glycoprotein I and use thereof” (priority 2001, dated 2007).

With `CC(C)CCC[C@@H](C)[C@H]1CC[C@H]2[C@@H]3C(=O)C=C4C[C@@H](OC(=O)CCCCCCCC(=O)O)CC[C@]4(C)[C@H]3CC[C@]12C` [oxLig-1, 9-oxo-9-(7-ketocholest-5-en-3β-yloxy)nonanoic acid], in test [1] (ligand-coated plate), the “binding of the anti-β2-GPI autoantibodies (WB-CAL-1 and EY2C9) to solid-phase ligand” value is “significant binding”. For the same compound, the “cross-reaction of autoantibodies derived from APS with β2-GPI complexed with lipid” value in test [1] is reported as “cross-reacted”. For the same compound, in test [2] (setting [8]), the “Binding of β2-GPI-dependent aCL, WB-CAL-1” value was determined as 1.035 ± 0.062. Besides, the “WB-CAL-1 binding, No treatment” value in test [2] (setting [9]) is recorded as 0.945 +/− 0.068. The “Binding of β2-GPI-dependent aCL, APS-2” value in test [3] is recorded as 1.222 ± 0.057. Further, the “ligand blot: interaction of β2-GPI and anti-β2-GPI antibodies with ligand” value in test [4] is “positively stained”; in test [4] (listed as Synthesized oxLig-1), “same Rf position and binding characteristics”. Also, in test [5] (setting [8]), the “Binding of β2-GPI-dependent aCL, Cof-22” value was 1.066 ± 0.114. Moreover, the “β2-GPI binding (Cof-22 binding), No treatment” value in test [5] (setting [9]) is 1.307 +/− 0.105. In addition, the “β2-GPI binding to lipid” value in test [5] (result in words (discussion)) was “significant bonding”. In addition, the “Binding of β2-GPI-dependent aCL, APS-1” value in test [6] is reported as 1.130 ± 0.177. Moreover, the “Binding of β2-GPI-dependent aCL, EY2C9” value in test [7] (setting [8]) is on record as 0.915 ± 0.072. In addition, in test [7] (setting [9]), the “EY2C9 binding, No treatment” value is given as 1.458 +/− 0.062.
